Data reported in patent publication US12595253B2, “Benzamides of pyrazolylamino-pyrimidinyl derivatives, and compositions and methods thereof” (LYNK PHARMACEUTICALS CO. LTD., priority 2019, dated 2026).
Values belong to the compound of their own block, whether it stands above or below them.

What was measured:
CYP2D6 = target: T1, CYP2D6 (Homo sapiens, UniProt P10635); experiment: CYPs inhibition in pooled human liver microsomes, probe substrate Dextromethorphan; assay type: in vitro ADME
T1 construct: 0.2 mg/mL human liver microsomes was pre-incubated in 180 μL reaction mixture; from tissue; host or cells: pooled human liver microsomes
T1 sequence (P10635 whole entry): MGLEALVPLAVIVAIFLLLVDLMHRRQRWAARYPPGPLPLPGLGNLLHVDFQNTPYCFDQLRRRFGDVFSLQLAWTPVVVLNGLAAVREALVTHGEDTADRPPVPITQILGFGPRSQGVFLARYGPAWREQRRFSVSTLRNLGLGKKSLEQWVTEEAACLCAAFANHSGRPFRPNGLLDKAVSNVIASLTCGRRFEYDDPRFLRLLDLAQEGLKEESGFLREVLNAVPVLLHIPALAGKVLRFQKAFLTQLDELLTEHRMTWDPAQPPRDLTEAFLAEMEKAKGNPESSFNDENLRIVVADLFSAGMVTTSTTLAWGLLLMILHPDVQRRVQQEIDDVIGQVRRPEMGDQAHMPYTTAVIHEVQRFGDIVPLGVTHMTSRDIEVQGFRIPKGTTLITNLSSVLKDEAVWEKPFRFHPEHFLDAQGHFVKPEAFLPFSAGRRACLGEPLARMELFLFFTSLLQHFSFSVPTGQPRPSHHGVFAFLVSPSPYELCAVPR
Method: (§1) The inhibitory potential of test articles in pooled human liver microsomes was evaluated by the method using a cocktail of CYP substrates. […] For the negative control well, the test articles was replaced with 20 μL reaction buffer. After 10 min of pre-incubation at 37° C., 20 μL 10 mM NADPH cofactor was added to the pre-reaction mixtures. After another 10 min incubation, the reaction was stopped by adding 400 μL of ice cold acetonitrile solution containing tolbutamide and labetalol served as internal standards. The incubation mixtures were centrifuged at 4000×g for 20 min, and then the supernatants were analyzed by LC-MS/MS after dilution. SigmaPlot was applied to plot % control activity versus the test compound concentrations, and for non-linear regression analysis of the data. IC50 values of test articles were determined using 3-parameter logistic equation.

CYP3A4 = target: T2, CYP3A4 (Homo sapiens, UniProt P08684); experiment: CYPs inhibition in pooled human liver microsomes, probe substrate Midazolam; assay type: in vitro ADME
T2 construct: 0.2 mg/mL human liver microsomes was pre-incubated in 180 μL reaction mixture; from tissue; host or cells: pooled human liver microsomes
T2 sequence (P08684 whole entry): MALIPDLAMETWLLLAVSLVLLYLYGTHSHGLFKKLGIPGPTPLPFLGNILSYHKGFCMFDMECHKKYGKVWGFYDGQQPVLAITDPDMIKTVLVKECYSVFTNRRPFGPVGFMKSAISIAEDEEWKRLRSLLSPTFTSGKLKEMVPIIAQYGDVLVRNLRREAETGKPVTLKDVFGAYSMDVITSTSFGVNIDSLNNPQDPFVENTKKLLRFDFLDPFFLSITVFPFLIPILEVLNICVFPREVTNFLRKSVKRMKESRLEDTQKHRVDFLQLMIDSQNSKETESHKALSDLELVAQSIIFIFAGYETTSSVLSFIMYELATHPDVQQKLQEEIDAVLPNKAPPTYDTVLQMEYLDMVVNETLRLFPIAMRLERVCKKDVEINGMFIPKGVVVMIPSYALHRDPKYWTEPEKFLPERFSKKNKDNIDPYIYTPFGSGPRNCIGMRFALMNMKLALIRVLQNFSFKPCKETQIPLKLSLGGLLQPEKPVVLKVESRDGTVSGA
Method: as §1

[1] = Rat colon pharmacokinetic study (plasma, colon, colon + fecal content); assay type: in vivo; details: SD rats, 10 mg/kg oral gavage; for Colon + Feces AUC: colon homogenized with fecal content; for Colon AUC: colon washed of fecal content; for AUC / Cmax / half-life: Sprague-Dawley (SD), rat; for AUC / Cmax: plasma; for half-life: in vivo
Method: The aim of this study was to obtain the pharmacokinetics of test articles in SD rats after oral administration. […] Rats were dosed with 10 mg/kg (1 mg/ml) via oral gavage. After dosing, blood and colon samples were collected at each time point (typically 0.5, 1, 3, 6, 24 hour). Blood was collected into appropriately labeled tubes containing K2EDTA as the anticoagulant. Plasma was obtained within one hour of blood collection by centrifugation at 8000g, 4-10° C. for 6 minutes, and then stored at −20° C. until analyzed by LC-MS/MS for quantification. Colon tissues were collected from exsanguinated rats at each time point. Collected colon tissue was divided into two parts. One part for the measurement of test articles in colon was washing three times by PBS to remove the fecal content before homogenization. The other part was homogenized with the fecal content for the measurement of test articles in colon and fecal content. Colon samples were homogenized in 1:5 (w/v) phosphate buffer (100 mM, pH 7.4). Homogenized samples were extracted with 3 fold volumes of acetonitrile and quantified against a standard curve with LC-MS/MS system.

FLT3 = target: T3, FLT3 (Homo sapiens, UniProt P36888); experiment: FLT3 microfluidic kinase assay; assay type: biochemical
T3 construct: purchased Carna Biosciences
T3 sequence (P36888 27-993): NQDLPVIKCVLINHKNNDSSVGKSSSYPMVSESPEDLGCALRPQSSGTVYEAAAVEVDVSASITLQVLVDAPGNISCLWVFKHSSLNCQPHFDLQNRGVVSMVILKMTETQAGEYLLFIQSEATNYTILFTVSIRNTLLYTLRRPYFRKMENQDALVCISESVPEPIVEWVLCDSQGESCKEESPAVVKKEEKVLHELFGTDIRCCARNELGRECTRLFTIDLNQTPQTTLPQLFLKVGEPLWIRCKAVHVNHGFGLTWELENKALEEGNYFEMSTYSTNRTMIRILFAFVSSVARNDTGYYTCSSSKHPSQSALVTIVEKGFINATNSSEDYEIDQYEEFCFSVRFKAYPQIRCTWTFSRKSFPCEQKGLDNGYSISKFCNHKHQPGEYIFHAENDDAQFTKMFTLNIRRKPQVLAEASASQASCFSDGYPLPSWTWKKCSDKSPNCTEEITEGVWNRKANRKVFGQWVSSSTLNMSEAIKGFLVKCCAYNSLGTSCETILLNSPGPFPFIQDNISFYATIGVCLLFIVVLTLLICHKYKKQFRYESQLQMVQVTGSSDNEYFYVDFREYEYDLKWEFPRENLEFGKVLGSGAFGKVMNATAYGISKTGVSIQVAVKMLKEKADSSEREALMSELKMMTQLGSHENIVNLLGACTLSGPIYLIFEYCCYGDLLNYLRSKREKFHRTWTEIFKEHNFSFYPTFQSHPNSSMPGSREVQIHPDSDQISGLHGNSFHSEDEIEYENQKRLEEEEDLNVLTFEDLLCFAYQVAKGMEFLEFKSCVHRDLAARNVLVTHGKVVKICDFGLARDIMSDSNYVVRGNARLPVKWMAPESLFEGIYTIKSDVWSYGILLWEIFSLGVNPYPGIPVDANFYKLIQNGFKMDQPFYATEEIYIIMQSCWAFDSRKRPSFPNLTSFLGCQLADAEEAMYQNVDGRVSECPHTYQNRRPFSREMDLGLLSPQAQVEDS
Method: Compounds were tested against FLT3, FLT3ITD and FLT3D835Y.
Assay Formats: FLT3 activity was determined in the reaction buffer 50 mM HEPES, 10 mM MgCl2 and 2 mM DTT by a microfluidic assay. The phosphorylation of a FAM labeled peptide substrate was monitored in the Caliper EZ Reader II (Perkin Elmer). The assay condition for each batch of enzyme (Carna Biosciences) was optimized to obtain 10% conversion rate of peptide substrate.
The test compounds were dissolved in DMSO to a stock concentration of 10 mM. 3-fold serially diluted compounds with top concentration of 5 μM were pre-incubated with FLT3, FLT3ITD or FLT3D835Y for 10 min at ambient temperature. The final DMSO concentration of assay mixture was 1%. […] The reaction was stopped by adding 50 mM EITA. The reaction time for FLT3, FLT3ITD and FLT3D8335Y was 30 min, 40 min and 40 min, respectively.
And the well without compound but with equivalent DMSO was defined as no inhibition. The percent inhibition was calculated by the following formula. % Inhibition=(Conversionmax−Conversionsample)/(Conversionmax−Conversionmin)*100 • Conversionmax means the conversion rate in the positive well without addition of compound • Conversionmin means the conversion rate in the well without addition of enzyme • Conversionsample means the conversion rate of test compounds
The dose-response (percent inhibition) curve was plotted and IC50 values were determined by GraphPad software.

[2] = Dog pharmacokinetic study (intravenous and oral); assay type: in vivo; details: plasma, Beagle dogs, oral, 5 mg/kg, solution
Method: Pharmacokinetic profile of test articles in rodent were evaluated in fasted male ICR mouse and Sprague-Dawley rats. […] Typically, mice were dosed with 2 mg/kg and 10 mg/kg by intravenous injection and oral gavage, respectively. Rats were dosed with 1 mg/kg and 5 mg/kg by intravenous injection and oral gavage, respectively. Beagle dogs were dosed with 1 mg/kg and 5 mg/kg by intravenous injection and oral gavage, respectively. After dosing, blood samples were collected at each time point. For IV injection group, time points were set at 5, 15, 30 min, and then 1, 2, 4, 8 and 24 hours after dosing. For oral gavage group, timepoints were set at 15, 30 m, and then 1, 2, 4, 8, and 24 hours. Blood was collected into appropriately labeled tubes containing K2EDTA as the anticoagulant. Plasma was obtained within 1 hours of blood collection by centrifugation at 8000×g and 4° C. for 6 minutes, and then stored at −20° C. until analyzed by LCMS/MS for quantification.

SMILES: Cn1cc(Nc2ncc(Cl)c(-c3ccc(C(=O)NCC#N)cc3)n2)cn1 [Example 34, 4-(5-Chloro-2-((1-methyl-1H-pyrazol-4-yl)amino)pyrimidin-4-yl)-N-(cyanomethyl)benzamide]
IC50 (FLT3): 0.0109 µM

SMILES: CCNC(=O)c1ccc(-c2nc(Nc3cnn(C)c3)ncc2C)cc1 [Example 222, N-ethyl-4-(5-methyl-2-((1-methyl-1H-pyrazol-4-yl)amino)pyrimidin-4-yl)benzamide]
IC50 (FLT3): 1.89 µM

SMILES: C[C@@H](C#N)NC(=O)c1ccc(-c2nc(Nc3cnn(C4CCNCC4)c3)ncc2Cl)cc1 [Example 165, (S)-4-(5-chloro-2-((1-(piperidin-4-yl)-1H-pyrazol-4-yl)amino)pyrimidin-4-yl)-N-(1-cyanoethyl)benzamide]
IC50 (CYP2D6): > 50 µM | IC50 (CYP3A4): 41.5 µM | AUC [2]: 27.9 ng·h/mL | Cmax [2]: 11 ng/mL | bioavailability [2]: 0.9%

SMILES: CC[C@@H](C#N)NC(=O)c1ccc(-c2nc(Nc3cnn(C4CC4)c3)ncc2Cl)cc1 [Example 61, (S)-4-(5-chloro-2-((1-cyclopropyl-1H-pyrazol-4-yl)amino)pyrimidin-4-yl)-N-(1-cyanopropyl)benzamide]
IC50 (FLT3): 0.00336 µM

SMILES: CC[C@@H](C#N)NC(=O)c1ccc(-c2nc(Nc3cnn(C4CCNCC4)c3)ncc2Cl)cc1 [Example 183, (S)-4-(5-chloro-2-((1-(piperidin-4-yl)-1H-pyrazol-4-yl)amino)pyrimidin-4-yl)-N-(1-cyanopropyl)benzamide]
IC50 (CYP2D6): 42 µM | IC50 (CYP3A4): 18.2 µM | AUC [2]: 29.9 ng·h/mL | Cmax [2]: 5.63 ng/mL | bioavailability [2]: 0.8% | half-life [2]: 3.34 h

SMILES: Cc1cnc(Nc2cnn(C3CCN(C(=O)CO)CC3)c2)nc1-c1ccc(C(=O)N[C@@H](C)C#N)cc1 [Example 119, (S)—N-(1-cyanoethyl)-4-(2-((1-(1-(2-hydroxyacetyl)piperidin-4-yl)-1H-pyrazol-4-yl)amino)-5-methylpyrimidin-4-yl)benzamide]
IC50 (CYP2D6): > 50 µM | IC50 (CYP3A4): > 50 µM | Colon + Feces AUC [1]: 1,629,181 h*ng/g | Colon AUC [1]: 6898 ng·h/g | AUC [1]: 23.7 ng·h/mL | Cmax [1]: 16 ng/mL | AUC [2]: 93.6 ng·h/mL | Cmax [2]: 37.9 ng/mL | bioavailability [2]: 4.6% | half-life [2]: 1.66 h

SMILES: Cc1cnc(Nc2cnn(C)c2)nc1-c1ccc(C(=O)NC(C)C)cc1 [Example 223, N-isopropyl-4-(5-methyl-2-((1-methyl-1H-pyrazol-4-yl)amino)pyrimidin-4-yl)benzamide]
IC50 (FLT3): 1.1 µM

SMILES: Cc1cnc(Nc2cnn(C3CC(C)(C)OC(C)(C)C3)c2)nc1-c1ccc(C(=O)NCC#N)cc1 [Example 113, N-(cyanomethyl)-4-(5-methyl-2-((1-(2,2,6,6-tetramethyltetrahydro-2H-pyran-4-yl)-1H-pyrazol-4-yl)amino)pyrimidin-4-yl)benzamide]
IC50 (CYP2D6): 35.4 µM | IC50 (CYP3A4): 19.6 µM

SMILES: N#CCNC(=O)c1ccc(-c2nc(Nc3cnn(C4CC4)c3)ncc2Cl)cc1 [Example 95, 4-(5-Chloro-2-((1-cyclopropyl-1H-pyrazol-4-yl)amino)pyrimidin-4-yl)-N-(cyanomethyl)benzamide]
IC50 (FLT3): 0.00535 µM

Other lines, results leading:

IC50 (CYP2D6): > 50 µM | IC50 (CYP3A4): > 50 µM | Colon + Feces AUC [1]: 559,570 h*ng/g | Colon AUC [1]: 3860 ng·h/g | AUC [1]: 0.4 ng·h/mL | Cmax [1]: 1.6 ng/mL
SMILES: C[C@@H](C#N)NC(=O)c1ccc(-c2nc(Nc3cnn(C4CCN(C)CC4)c3)ncc2Cl)cc1 [Example 43, (S)-4-(5-Chloro-2-((1-(1-methylpiperidin-4-yl)-1H-pyrazol-4-yl)amino)pyrimidin-4-yl)-N-(1-cyanoethyl)benzamide]

IC50 (FLT3): 0.00673 µM
SMILES: C[C@@H](C#N)NC(=O)c1ccc(-c2nc(Nc3cnn(C4CC4)c3)ncc2Cl)cc1 [Example 111, (S)-4-(5-Chloro-2-((1-cyclopropyl-1H-pyrazol-4-yl)amino)pyrimidin-4-yl)-N-(1-cyanoethyl)benzamide]

IC50 (CYP2D6): > 50 µM | IC50 (CYP3A4): > 50 µM | Colon + Feces AUC [1]: 545,501 h*ng/g | Colon AUC [1]: 6,623 h*ng/g | half-life [1]: 1.6 h | AUC [1]: 96 ng·h/mL | Cmax [1]: 68.8 ng/mL
SMILES: Cc1cnc(Nc2cnn(CC#N)c2)nc1-c1ccc(C(=O)NCC#N)cc1 [Example 4, N-(Cyanomethyl)-4-(2-((1-(cyanomethyl)-1H-pyrazol-4-yl)amino)-5-methylpyrimidin-4-yl)benzamide]

IC50 (FLT3): 0.0236 µM
SMILES: C[C@@H](C#N)NC(=O)c1ccc(-c2nc(Nc3cnn(C)c3)ncc2Cl)cc1 [Example 125, (S)-4-(5-chloro-2-((1-methyl-1H-pyrazol-4-yl)amino)pyrimidin-4-yl)-N-(1-cyanoethyl)benzamide]

IC50 (CYP2D6): > 50 µM | IC50 (CYP3A4): > 50 µM | Colon + Feces AUC [1]: 827,222 h*ng/g | Colon AUC [1]: 3,961 h*ng/g | half-life [1]: 0.5 h | AUC [1]: 8.9 ng·h/mL | Cmax [1]: 9.3 ng/mL | AUC [2]: 527 ng·h/mL | Cmax [2]: 125 ng/mL | bioavailability [2]: 19.1% | half-life [2]: 3.15 h
SMILES: CC[C@@H](C#N)NC(=O)c1ccc(-c2nc(Nc3cnn(C4CCN(C)CC4)c3)ncc2C)cc1 [Example 184, (S)—N-(1-Cyanopropyl)-4-(5-methyl-2-((1-(1-methylpiperidin-4-yl)-1H-pyrazol-4-yl)amino)pyrimidin-4-yl)benzamide]

IC50 (FLT3): 1.2 µM
SMILES: CNC(=O)c1ccc(-c2nc(Nc3cnn(C)c3)ncc2C)cc1 [Example 10, N-Methyl-4-(5-methyl-2-((1-methyl-1H-pyrazol-4-yl)amino)pyrimidin-4-yl)benzamide]
